Source: patent EP4667466A1, “PROTAC DEGRADERS OF MLLT1 AND/OR MLLT3” (priority 2024, dated 2025)

Molecular target: T1, MLLT1 (Homo sapiens, UniProt Q03111)
T1 construct: endogenous in cells; host or cells: MV4-11 (ATCC CRL-9591)
T1 sequence (Q03111 1-559): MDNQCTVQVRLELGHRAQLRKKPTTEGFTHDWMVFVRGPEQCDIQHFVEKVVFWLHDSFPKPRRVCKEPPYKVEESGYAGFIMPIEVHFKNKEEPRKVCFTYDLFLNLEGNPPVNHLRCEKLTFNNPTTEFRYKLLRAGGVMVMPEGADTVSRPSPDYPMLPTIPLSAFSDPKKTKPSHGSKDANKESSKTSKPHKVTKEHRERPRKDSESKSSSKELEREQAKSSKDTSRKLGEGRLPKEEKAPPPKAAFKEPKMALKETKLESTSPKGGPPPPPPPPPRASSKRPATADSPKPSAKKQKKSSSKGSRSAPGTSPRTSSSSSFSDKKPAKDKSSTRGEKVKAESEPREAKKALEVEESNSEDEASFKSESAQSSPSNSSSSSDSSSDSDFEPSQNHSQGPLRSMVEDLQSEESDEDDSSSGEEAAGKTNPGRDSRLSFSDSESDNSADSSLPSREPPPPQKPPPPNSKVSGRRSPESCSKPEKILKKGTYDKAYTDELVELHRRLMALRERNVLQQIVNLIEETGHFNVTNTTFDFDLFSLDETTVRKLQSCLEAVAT
Assay: MLLT1 degradation assay (JESS automated chemiluminescent detection) in MV4-11 cells
Type: cell-based
Conditions: 24h, with respect to DMSO control
Experimental: MLLT1 degradation efficacy of compounds was tested in an automated chemiluminescent detection system (JESS, Cat# 004-650). MV4-11 (#CRL-9591, ATCC) cells were seeded at a density of 1.2 million cells/well in a non-treated 6-well cell culture plate in 2.4 mL of complete medium (IMDM + 10% FBS + 1X Penicillin-Streptomycin). 10 mM DMSO stocks were prepared, and cells were treated with three concentrations of test compounds viz. 1000, 100 and 10 nM at a final DMSO concentration of 0.1% and incubated for 24h at 37°C, 5% CO2. Post incubation, cells were centrifuged, washed with HBSS and lysed in 70 uL of RIPA buffer supplemented with Protease inhibitors (sc-24948; Santa Cruz). Subsequently, protein estimation was done using BCA protein assay kit (23225; Pierce). 4 ug protein lysate (4 uL of 1ug/uL lysate) was loaded into each well of the JESS cartridge (SM-WO01; Bio-techne) and the JESS run was performed using 1:900 dilution of anti-human MLLT1 antibody (14893; Cell signaling technology) and 1:1200 dilution of anti-human GAPDH antibody (2118; Cell signaling technology) with anti-rabbit secondary detection module (DM-001; Bio-Techne). Post run, data were analysed using "Compass for SW" software for chemiluminescent detection. The peak area for each band was used for the calculation of MLLT1 degradation with respect to DMSO control. Data is shown as "MLLT1 % degradation". Category A: A ≥ 75% degradation Category B: 50% ≤ B < 75% degradation Category C: 25% ≤ C < 50% degradation Category D: D < 25% degradation Table 1

Structure (SMILES) | inhibition at 0.01 µM [%] | inhibition at 0.1 µM [%] | inhibition at 1 µM [%]
Cc1nn(CCCCCCCC#Cc2ccc3c(c2)n(C)c(=O)n3C2CCC(=O)NC2=O)c2cc(C(=O)Nc3cc4[nH]c([C@H]5CCCN5C)cc4cn3)ccc12 (stereo partly drawn) [Example 39, 1-(9-(1-(2,6-dioxopiperidin-3-yl)-3-methyl-2-oxo-2,3-dihydro-1H benzo[d]imidazol-5-yl)non-8-yn-1-yl)-3-methyl-N-(2-((R)-1-methylpyrrolidin-2-yl)-1H-pyrrolo[3,2-c]pyridin-6-yl)-1H-indazole-6-carboxamide] | ≥ 75 | ≥ 75 | ≥ 75
Cc1nn(CCCCCCCC#Cc2cccc(C(=O)N[C@H]3CCC(=O)NC3=O)n2)c2cc(C(=O)Nc3cc4[nH]c([C@H]5CCCN5C)cc4cn3)ccc12 [Example 42, 1-(9-(6-(((S)-2,6-dioxopiperidin-3-yl)carbamoyl)pyridin-2-yl)non-8-yn-1-yl)-3-methyl-N-(2-((R)-1-methylpyrrolidin-2-yl)-1H-pyrrolo [3,2-c]pyridin-6-yl)-1H-indazole-6-carboxamide] | 50 to 75 | ≥ 75 | ≥ 75
Cc1nn(CCCCCN2CCN(c3cccc4c3C(=O)N(C3CCC(=O)NC3=O)C4=O)CC2)c2cc(C(=O)Nc3cc4[nH]c([C@H]5CCCN5C)cc4cn3)ccc12 (stereo partly drawn) [Example 47, 1-(5-(4-(2-(2,6-dioxopiperidin-3-yl)-1,3-dioxoisoindolin-4-yl)piperazin-1-yl)pentyl)-3-methyl-N-(2-((R)-1-methylpyrrolidin-2-yl)-1H-pyrrolo[3,2-c]pyridin-6-yl)-1H-indazole-6-carboxamide] | < 25 | < 25 | 50 to 75
CCN1CCC[C@@H]1c1cc2cnc(NC(=O)c3ccc4c(C)nn(CCCCCCCC#Cc5cccc6c5CN(C5CCC(=O)NC5=O)C6=O)c4c3)cc2[nH]1 (stereo partly drawn) [Example 48, 1-(9-(2-(2,6-dioxopiperidin-3-yl)-1-oxoisoindolin-4-yl)non-8-yn-1-yl)-N-(2-((R)-1-ethylpyrrolidin-2-yl)-1H-pyrrolo[3,2-c]pyridin-6-yl)-3-methyl-1H-indazole-6-carboxamide] | 25 to 50 | 50 to 75 | ≥ 75
Cc1nn(CCCCCCCC#Cc2cccc(C(=O)N[C@H]3CCC(=O)NC3=O)c2F)c2cc(C(=O)Nc3cc4[nH]c([C@H]5CCCN5C)cc4cn3)ccc12 [Example 51, 1-(9-(3-(((S)-2,6-dioxopiperidin-3-yl)carbamoyl)-2-fluorophenyl)non-8-yn-1-yl)-3-methyl-N-(2-((R)-1-methylpyrrolidin-2-yl)-1H-pyrrolo[3,2-c]pyridin-6-yl)-1H-indazole-6-carboxamide] | 25 to 50 | 50 to 75 | ≥ 75
Cc1nn(CCCCCCCC#Cc2ccc(F)c3c2CN(C2CCC(=O)NC2=O)C3=O)c2cc(C(=O)Nc3cc4[nH]c([C@H]5CCCN5C)cc4cn3)ccc12 (stereo partly drawn) [Example 52, 1-(9-(2-(2,6-dioxopiperidin-3-yl)-7-fluoro-1-oxoisoindolin-4-yl)non-8-yn-1-yl)-3-methyl-N-(2-((R)-1-methylpyrrolidin-2-yl)-1H-pyrrolo[3,2-c]pyridin-6-yl)-1H-indazole-6-carboxamide] | ≥ 75 | ≥ 75 | ≥ 75
CN1CCC[C@@H]1c1cc2cnc(NC(=O)c3ccc4cnn(CCCCCCCC#Cc5cccc6c5CN(C5CCC(=O)NC5=O)C6=O)c4c3)cc2[nH]1 (stereo partly drawn) [Example 55, 1-(9-(2-(2,6-dioxopiperidin-3-yl)-1-oxoisoindolin-4-yl)non-8-yn-1-yl)-N-(2-((R)-1-methylpyrrolidin-2-yl)-1H-pyrrol[3,2-c]pyridin-6-yl)-1H-indazole-6-carboxamide] | 50 to 75 | ≥ 75 | ≥ 75

The next lines start with the values.

inhibition at 0.01 µM [%] | inhibition at 0.1 µM [%] | inhibition at 1 µM [%] | Structure (SMILES)
50 to 75 | ≥ 75 | 50 to 75 | CN1CCC[C@@H]1c1cc2cnc(NC(=O)c3ccc4c(cnn4CCCCCCCC#Cc4cccc5c4CN(C4CCC(=O)NC4=O)C5=O)c3)cc2[nH]1 (stereo partly drawn) [Example 38, 1-(9-(2-(2,6-dioxopiperidin-3-yl)-1-oxoisoindolin-4-yl)non-8-yn-1-yl)-N-(2-((R)-1-methylpyrrolidin-2-yl)-1H-pyrrolo[3,2-c]pyridin-6-yl)-1H-indazole-5-carboxamide]
< 25 | 25 to 50 | 50 to 75 | Cc1nn(CCCCCCCC#Cc2ccc(C(=O)N[C@H]3CCC(=O)NC3=O)nc2)c2cc(C(=O)Nc3cc4[nH]c([C@H]5CCCN5C)cc4cn3)ccc12 [Example 41, 1-(9-(6-(((S)-2,6-dioxopiperidin-3-yl)carbamoyl)pyridin-3-yl)non-8-yn-1-yl)-3-methyl-N-(2-((R)-1-methylpyrrolidin-2-yl)-1H-pyrrolo [3,2-c]pyridin-6-yl)-1H-indazole-6-carboxamide]
25 to 50 | 50 to 75 | ≥ 75 | Cc1nn(CCCCCCCC#Cc2ccnc(C(=O)N[C@H]3CCC(=O)NC3=O)c2)c2cc(C(=O)Nc3cc4[nH]c([C@H]5CCCN5C)cc4cn3)ccc12 [Example 43, 1-(9-(2-(((S)-2,6-dioxopiperidin-3-yl)carbamoyl)pyridin-4-yl)non-8-yn-1-yl)-3-methyl-N-(2-((R)-1-methylpyrrolidin-2-yl)-1H-pyrrolo [3,2-c]pyridin-6-yl)-1H-indazole-6-carboxamide]
≥ 75 | ≥ 75 | ≥ 75 | Cc1nn(CCCCCOCC#Cc2cccc3c2CN(C2CCC(=O)NC2=O)C3=O)c2cc(C(=O)Nc3cc4[nH]c([C@H]5CCCN5C)cc4cn3)ccc12 (stereo partly drawn) [Example 49, 1-(5-((3-(2-(2,6-dioxopiperidin-3-yl)-1-oxoisoindolin-4-yl)prop-2-yn-1-yl)oxy)pentyl)-3-methyl-N-(2-((R)-1-methylpyrrolidin-2-yl)-1H-pyrrolo[3,2-c]pyridin-6-yl)-1H-indazole-6-carboxamide]
≥ 75 | ≥ 75 | ≥ 75 | Cc1nn(CCOCCCCC#Cc2cccc3c2CN(C2CCC(=O)NC2=O)C3=O)c2cc(C(=O)Nc3cc4[nH]c([C@H]5CCCN5C)cc4cn3)ccc12 (stereo partly drawn) [Example 50]
≥ 75 | ≥ 75 | ≥ 75 | Cc1nn(CCCCCCCC#Cc2cccc3c2CN(C2CCC(=O)NC2=O)C3=O)c2cc(C(=O)Nc3cc4[nH]c([C@H]5CCCN5C)c(Cl)c4cn3)ccc12 (stereo partly drawn) [Example 53, N-(3-chloro-2-((R)-1-methylpyrrolidin-2-yl)-1H-pyrrolo[3,2-c]pyridin-6-yl)-1-(9-(2-(2,6-dioxopiperidin-3-yl)-1-oxoisoindolin-4-yl)non-8-yn-1-yl)-3-methyl-1H-indazole-6-carboxamide]
≥ 75 | ≥ 75 | ≥ 75 | Cc1nn(CCCCCCCCC#Cc2cccc3c2CN(C2CCC(=O)NC2=O)C3=O)c2cc(C(=O)Nc3cc4[nH]c([C@H]5CCCN5C)cc4cn3)ccc12 (stereo partly drawn) [Example 54, 1-(10-(2-(2,6-dioxopiperidin-3-yl)-1-oxoisoindolin-4-yl)dec-9-yn-1-yl)-3-methyl-N-(2-((R)-1-methylpyrrolidin-2-yl)-1H-pyrrolo[3,2-c]pyridin-6-yl)-1H-indazole-6-carboxamide]
≥ 75 | ≥ 75 | ≥ 75 | Cc1c([C@H]2CCCN2C)[nH]c2cc(NC(=O)c3ccc4c(C)nn(CCCCCCCC#Cc5cccc6c5CN(C5CCC(=O)NC5=O)C6=O)c4c3)ncc12 (stereo partly drawn) [Example 57, 1-(9-(2-(2,6-dioxopiperidin-3-yl)-1-oxoisoindolin-4-yl)non-8-yn-1-yl)-3-methyl-N-(3-methyl-2-((R)-1-methylpyrrolidin-2-yl)-1H-pyrrolo[3,2-c]pyridin-6-yl)-1H-indazole-6-carboxamide]
